From US20240140941A1, “DERIVATIVE OF 2,5-DIKETOPIPERAZINE COMPOUND, AND PREPARATION METHOD THEREFOR, PHARMACEUTICAL COMPOSITION THEREOF AND USE THEREOF” (DALIAN WZ PROBIOTICS AD HEALTH CO., LTD, priority 2020, published 2024)
Structures can show the parent of a compound that is named as a salt. Where two headings read alike, the source gives them in different places.

Columns and labels:
HT-29 = assay: Inhibition test on cell proliferation (MTT), HT-29; assay type: cell-based, human; settings: 72 hours of drug treatment
Protocol: (§1) Tumor cells (NCI-H460, BxPC-3, HT-29, HCC-LM3) in the logarithmic growth phase were digested, centrifuged, and the supernatants were removed. Cells were resuspended by adding fresh culture medium, and counted using a cell counting plate. 100 μL of culture medium (containing cells) was added to a 96-well plate according to the standard of 2000 to 6000 cells per well and incubated in an incubator (37° C., 5% CO2) for 24 hours. After the cells were completely adhered to the wall, the test sample and Plinabulin were diluted to different concentrations using fresh culture medium, and 4 wells were set for each concentration. After 72 hours of drug treatment, the culture medium was removed, and 20 μL of MTT at a concentration of 5 mg/mL was added to each well. After 3-4 hours in the incubator, the MTT was discarded, and 100 μL of DMSO was added to each well, and placed in a 96-well plate shaker to completely dissolve the purple formazan. Subsequently, the absorbance (OD value) was detected at a wavelength of 490 nm using a microplate reader. The experiment also required setting up zero-setting wells (blank culture medium, MTT, DMSO). Cell inhibition rate=1−(OD value of drug-dosed group−OD value of zero-setting group)/(OD value of blank group−OD value of zero-setting group)×100%.

BxPC-3 = assay: Inhibition test on cell proliferation (MTT), BxPC-3; assay type: cell-based, human; settings: read-out: IC50 (nM) BxPC-3
Protocol: as §1

NCI-H460 = assay: Inhibition test on cell proliferation (MTT), NCI-H460; assay type: cell-based, human
Protocol: as §1

HCC-LM3 = assay: Inhibition test on cell proliferation (MTT), HCC-LM3; assay type: cell-based, human; settings: read-out: IC50 (nM) HCC-LM3
Protocol: as §1

[1] = Homo sapiens, BXPC-3, 72 h, 72 hours of drug treatment, MTT
[2] = Homo sapiens, NCI-H460, 72 h, 72 hours of drug treatment, MTT, read-out: IC50 (nM) NCI-H460
[3] = Homo sapiens, HCCLM3, 72 h, 72 hours of drug treatment, MTT
[4] = 72 hours of drug treatment, MTT, hydrochloride
[5] = 72 hours of drug treatment, MTT, hydrochloride, read-out: IC50 (nM) NCI-H460
[6] = 72 hours of drug treatment, MTT, mesylate
[7] = 72 hours of drug treatment, MTT, mesylate, read-out: IC50 (nM) NCI-H460

Row | SMILES | IC50 (HT-29; Homo sapiens, HT-29, 72 h) [nM] | IC50 (BxPC-3; [1]) [nM] | IC50 (NCI-H460; [2]) [nM] | melting point [°C] | further results
1 | CC(C)c1c(/C=c2\[nH]c(=O)/c(=C/c3cccc(C(=O)c4ccc(F)cc4)c3)[nH]c2=O)ncn1CCCN1CCN(C(=O)C2CCC2)CC1 [PLN-2-36, (3Z,6Z)-3-(3-(p-fluorobenzoyl)phenyl)methylene-6-((5-isopropyl-1-(3-N-cyclobutanoylpiperazinyl)propylimidazol-4-yl)methylene)piperazine-2,5-dione] | 2.97 ± 0.51 | 2.25 ± 1.22 | 4.31 ± 0.59 | – | –
2 | O=c1[nH]/c(=C\c2ncn(CCCN3CCOCC3)c2C2CC2)c(=O)[nH]/c1=C\c1ccccc1 [PLN-2-6, (3Z,6Z)-3-benzylidene-6-((5-cyclopropyl-1-(−3-morpholinyl)propylimidazol-4-yl)methylene)piperazine-2,5-dione] | 25.3 ± 3.54 | 27.7 ± 0.94 | 33.5 ± 0.46 | – | IC50 (HCC-LM3; [3]): 16.6 ± 0.66 nM
3 | CC(C)c1c(/C=c2\[nH]c(=O)/c(=C/c3cccc(F)c3)[nH]c2=O)ncn1CCCN1CCO[C@@H](C)C1 [PLN-2-57-1, (3Z,6Z)-3-(3-Fluorophenyl)methylene-6-(5-isopropyl-1-(3-S)—(−2-methylmorpholinyl)propylimidazol-4-yl)methylene)piperazine-2,5-dione, hydrochloride] | – | – | – | – | IC50 (HT-29; hydrochloride): 10.6 ± 3.68 nM; IC50 (HCC-LM3; [4]): 12.9 ± 1.61 nM; IC50 (BxPC-3; [4]): 14.1 ± 1.23 nM; IC50 (NCI-H460; [5]): 17.5 ± 0.71 nM
4 | CC(C)c1c(/C=c2\[nH]c(=O)/c(=C/c3cccc(C(=O)c4ccc(F)cc4)c3)[nH]c2=O)ncn1CCCN1CCN(C)CC1 [PLN-2-21, (3Z,6Z)-3-(3-(p-fluorobenzoyl)phenyl)methylene-6-((5-isopropyl-1-(3-N-methylpiperazinyl)propylimidazol-4-yl)methylene)piperazine-2,5-dione] | 13.8 ± 3.08 | 15.3 ± 1.83 | 23.9 ± 1.02 | – | –
5 | CC(C)c1c(/C=c2\[nH]c(=O)/c(=C/c3ccccc3)[nH]c2=O)ncn1CCCN1CCOCC1 (as salt: hydrochloride) [PLN-2-5-1, (3Z,6Z)-3-Benzylidene-6-((5-isopropyl-1-(3-morpholinyl)propylimidazol-4-yl)methylene)piperazine-2,5-dione, hydrochloride] | – | – | – | 220 to 222 | –
6 | CC(C)c1c(/C=c2\[nH]c(=O)/c(=C/c3cc(F)cc(F)c3)[nH]c2=O)ncn1CCCN1CCOCC1 [PLN-2-62-2, (3Z,6Z)-3-(3,5-Difluorophenyl)methylene-6-((5-isopropyl-1-(3-morpholinyl)propylimidazol-4-yl)methylene)piperazine-2,5-dione, mesylate] | – | – | – | – | IC50 (HT-29; mesylate): 3.55 ± 0.04 nM; IC50 (HCC-LM3; [6]): 3.99 ± 0.08 nM; IC50 (BxPC-3; [6]): 3.66 ± 1.15 nM; IC50 (NCI-H460; [7]): 4.6 ± 1.33 nM
7 | O=c1[nH]/c(=C\c2ncn(CCCN3CCOCC3)c2C2CC2)c(=O)[nH]/c1=C\c1cc(F)ccc1F [PLN-2-8, (3Z,6Z)-3-(2,5-difluorophenyl)methylene-6-((5-cyclopropyl-1-(−3-morpholinyl)propylimidazol-4-yl)methylene)piperazine-2,5-dione] | 13.4 ± 2.08 | 8.8 ± 0.16 | 15.2 ± 2.82 | – | –
8 | CC(C)c1c(/C=c2\[nH]c(=O)/c(=C/c3cccc(F)c3)[nH]c2=O)ncn1CCCN1CCOCC1 [PLN-2-9-2, mesylate] | – | – | – | – | IC50 (HT-29; mesylate): 5.84 ± 1.66 nM; IC50 (HCC-LM3; [6]): 6.08 ± 0.51 nM; IC50 (BxPC-3; [6]): 5.14 ± 0.52 nM; IC50 (NCI-H460; [7]): 8.49 ± 0.72 nM
9 | CC(C)c1c(/C=c2\[nH]c(=O)/c(=C/c3cccc(Oc4ccc(F)cc4)c3)[nH]c2=O)ncn1CCCN1CCOCC1 (as salt: hydrochloride) [PLN-2-2-1] | – | – | – | 173 to 175 | –
10 | CC(C)c1c(/C=c2\[nH]c(=O)/c(=C/c3cccc(F)c3)[nH]c2=O)ncn1CCCN1CCO[C@H](C)C1 (as salt: hydrochloride) [PLN-2-56-1, (3Z,6Z)-3-(3-Fluorophenyl)methylene-6-(5-isopropyl-1-(3-(R)-(2-methylmorpholinyl)propylimidazol-4-yl)methylene)piperazine-2,5-dione, hydrochloride] | – | – | – | 232.8 to 234.8 | –
11 | CCCOCC1CN(CCCn2cnc(/C=c3\[nH]c(=O)/c(=C/c4cccc(F)c4)[nH]c3=O)c2C(C)C)CCO1 (centres unmarked) [PLN-2-59, (3Z,6Z)-3-(3-fluorophenyl)methylene-6-(5-isopropyl-1-(3-(2-(propoxymethyl)morpholinyl)propylimidazol-4-yl)methylene)piperazine-2,5-dione] | – | 15.5 ± 0.74 | 27.4 ± 0.52 | 178 to 180 | IC50 (HCC-LM3; [3]): 23.3 ± 2.49 nM
12 | CCOCC1CN(CCCn2cnc(/C=c3\[nH]c(=O)/c(=C/c4cccc(F)c4)[nH]c3=O)c2C(C)C)CCO1 (centres unmarked) [PLN-2-58, (3Z,6Z)-3-(3-Fluorophenyl)methylene-6-(5-isopropyl-1-(3-(2-(ethoxymethyl)morpholinyl)propylimidazol-4-yl)methylene)piperazine-2,5-dione] | – | 8.1 ± 1.44 | 11.8 ± 1.82 | 202 to 204 | IC50 (HCC-LM3; [3]): 16.7 ± 0.98 nM
13 | CC(C)c1c(/C=c2\[nH]c(=O)/c(=C/c3cc(F)ccc3F)[nH]c2=O)ncn1CCCN1CCOCC1 (as salt: hydrochloride) [PLN-2-7-1, (3Z,6Z)-3-(2,5-Difluorophenyl)methylene-6-((5-isopropyl-1-(3-morpholinyl)propylimidazol-4-yl)methylene)piperazine-2,5-dione, hydrochloride] | – | – | – | 174 to 176 | –
14 | CC(C)c1c(/C=c2\[nH]c(=O)/c(=C/c3cccc(F)c3)[nH]c2=O)ncn1CCCN1CCO[C@H](C)C1 [PLN-2-56-1, (3Z,6Z)-3-(3-Fluorophenyl)methylene-6-(5-isopropyl-1-(3-(R)-(2-methylmorpholinyl)propylimidazol-4-yl)methylene)piperazine-2,5-dione, hydrochloride] | – | – | – | – | IC50 (HT-29; hydrochloride): 4.43 ± 0.13 nM; IC50 (HCC-LM3; [4]): 4.72 ± 0.73 nM; IC50 (BxPC-3; [4]): 4.99 ± 0.19 nM; IC50 (NCI-H460; [5]): 7.69 ± 0.28 nM
15 | O=c1[nH]/c(=C\c2ncn(CCCN3CCOCC3)c2C2CC2)c(=O)[nH]/c1=C\c1cccc(F)c1 [PLN-2-10-2, (3Z,6Z)-3-(3-Fluorophenyl)methylene-6-((5-cyclopropyl-1-(3-morpholinyl)propylimidazol-4-yl)methylene)piperazine-2,5-dione, mesylate] | – | – | – | – | IC50 (HT-29; mesylate): 13.2 ± 2.15 nM; IC50 (HCC-LM3; [6]): 13.3 ± 4.02 nM; IC50 (BxPC-3; [6]): 12.6 ± 0.96 nM; IC50 (NCI-H460; [7]): 11.2 ± 2.04 nM
16 | CC(C)c1c(/C=c2\[nH]c(=O)/c(=C/c3cccc(C(=O)c4ccc(F)cc4)c3)[nH]c2=O)ncn1CCCN1CCOCC1 [PLN-2-1-2, (3Z,6Z)-3-(3-(p-Fluorobenzoyl)phenyl)methylene-6-((5-isopropyl-1-(3-morpholinyl)propylimidazol-4-yl)methylene)piperazine-2,5-dione, mesylate] | 1.42 ± 0.46 | 1.33 ± 0.19 | 1.95 ± 0.08 | – | IC50 (HCC-LM3; [6]): 1.85 ± 0.27 nM
17 | CC(C)c1c(/C=c2\[nH]c(=O)/c(=C/c3cccc(C(=O)c4ccc(F)cc4)c3)[nH]c2=O)ncn1CCCN1CCNCC1 [PLN-2-16, (3Z,6Z)-3-(3-(p-fluorobenzoyl)phenyl)methylene-6-((5-isopropyl-1-(3-piperazinyl)propylimidazol-4-yl)methylene)piperazine-2,5-dione] | 11.1 ± 1.87 | 5.92 ± 3.74 | 25.6 ± 9.64 | – | –
18 | CC(C)c1c(/C=c2\[nH]c(=O)/c(=C/c3cccc(F)c3)[nH]c2=O)ncn1CCCN1CCO[C@@H](C)C1 (as salt: hydrochloride) [PLN-2-57-1, (3Z,6Z)-3-(3-Fluorophenyl)methylene-6-(5-isopropyl-1-(3-S)—(−2-methylmorpholinyl)propylimidazol-4-yl)methylene)piperazine-2,5-dione, hydrochloride] | – | – | – | 232.2 to 234.2 | –
19 | CC(C)c1c(/C=c2\[nH]c(=O)/c(=C/c3cccc(Oc4ccc(F)cc4)c3)[nH]c2=O)ncn1CCCN1CCNCC1 [PLN-2-18] | – | – | 99.72 ± 0.82 | 176 to 178 | –
20 | CC(C)c1c(/C=c2\[nH]c(=O)/c(=C/c3cccc(F)c3)[nH]c2=O)ncn1CCCN1CCOC(COCc2ccccc2)C1 (centres unmarked) [PLN-2-60, (3Z,6Z)-3-(3-Fluorophenyl)methylene-6-(5-isopropyl-1-(3-(2-(benzyloxymethyl)morpholinyl)propylimidazol-4-yl)methylene)piperazine-2,5-dione] | – | – | – | 157 to 159 | IC50 (HCC-LM3; Homo sapiens, HCCLM3, 72 h): 49.2 ± 1.3 nM; IC50 (BxPC-3; Homo sapiens, BXPC-3, 72 h): 27.2 ± 1.42 nM; IC50 (NCI-H460; Homo sapiens, NCI-H460, 72 h, read-out: IC50 (nM) NCI-H460, 72 hours of drug treatment, MTT): 59.67 ± 0.3 nM
